{
  "source": "PubChem BioAssay (NCI)",
  "assay_in_all_cases": "inhibition of tumour cell growth, NCI panel, 48 h",
  "key": {"PC-3 prostate": {"system": "PC-3 prostate"}, "TK-10 renal": {"system": "TK-10 renal"}, "UACC-62 melanoma": {"system": "UACC-62 melanoma"}, "HS 578T breast": {"system": "HS 578T breast"}, "SNB-75 CNS": {"system": "SNB-75 CNS"}, "OVCAR-5 ovarian": {"system": "OVCAR-5 ovarian"}, "SK-MEL-28 melanoma": {"system": "SK-MEL-28 melanoma"}, "M14 melanoma": {"system": "M14 melanoma"}, "RXF 393 renal": {"system": "RXF 393 renal"}, "KM12 colon": {"system": "KM12 colon"}, "SN12C renal": {"system": "SN12C renal"}, "786-0 renal": {"system": "786-0 renal"}, "U251 CNS": {"system": "U251 CNS"}, "NCI-H226 lung": {"system": "NCI-H226 lung"}, "SF-539 CNS": {"system": "SF-539 CNS"}, "OVCAR-8 ovarian": {"system": "OVCAR-8 ovarian"}, "OVCAR-4 ovarian": {"system": "OVCAR-4 ovarian"}, "SR leukemia": {"system": "SR leukemia"}, "SK-MEL-5 melanoma": {"system": "SK-MEL-5 melanoma"}, "HOP-62 NSCLC": {"system": "HOP-62 NSCLC"}, "MALME-3M melanoma": {"system": "MALME-3M melanoma"}, "MCF7 breast": {"system": "MCF7 breast"}, "SK-MEL-2 melanoma": {"system": "SK-MEL-2 melanoma"}, "T-47D breast": {"system": "T-47D breast"}, "OVCAR-3 ovarian": {"system": "OVCAR-3 ovarian"}, "NCI/ADR-RES ovarian": {"system": "NCI/ADR-RES ovarian"}, "SF-295 CNS": {"system": "SF-295 CNS"}, "RPMI-8226 leukemia": {"system": "RPMI-8226 leukemia"}, "BT-549 breast": {"system": "BT-549 breast"}, "MOLT-4 leukemia": {"system": "MOLT-4 leukemia"}, "K-562 leukemia": {"system": "K-562 leukemia"}, "NCI-H460 lung": {"system": "NCI-H460 lung"}, "SK-OV-3 ovarian": {"system": "SK-OV-3 ovarian"}, "DU-145 prostate": {"system": "DU-145 prostate"}, "CCRF-CEM leukemia": {"system": "CCRF-CEM leukemia"}, "SNB-19 CNS": {"system": "SNB-19 CNS"}, "NCI-H522 lung": {"system": "NCI-H522 lung"}, "HT29 colon": {"system": "HT29 colon"}, "IGROV1 ovarian": {"system": "IGROV1 ovarian"}, "ACHN renal": {"system": "ACHN renal"}, "A498 renal": {"system": "A498 renal"}, "HL-60(TB) leukemia": {"system": "HL-60(TB) leukemia"}, "HCC-2998 colon": {"system": "HCC-2998 colon"}, "MDA-MB-231 breast": {"system": "MDA-MB-231 breast"}, "UACC-257 melanoma": {"system": "UACC-257 melanoma"}, "HCT-116 colon": {"system": "HCT-116 colon"}, "HCT-15 colon": {"system": "HCT-15 colon"}, "NCI-H23 lung": {"system": "NCI-H23 lung"}, "SF-268 CNS": {"system": "SF-268 CNS"}, "MDA-MB-435": {"system": "MDA-MB-435"}, "COLO 205 colon": {"system": "COLO 205 colon"}, "A549 NSCLC": {"system": "A549 NSCLC"}, "UO-31 renal": {"system": "UO-31 renal"}, "SW-620 colon": {"system": "SW-620 colon"}, "CAKI-1 renal": {"system": "CAKI-1 renal"}, "LOX IMVI melanoma": {"system": "LOX IMVI melanoma"}, "EKVX NSCLC": {"system": "EKVX NSCLC"}, "HOP-92 NSCLC": {"system": "HOP-92 NSCLC"}},
  "note": "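Five compound concentrations were applied to cells in 96-well plates for 48 hours; endpoints were derived by simple linear interpolation of the resulting dose-response curve. TGI denotes the concentration required for complete inhibition of growth.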",
  "data": [
    {"smiles": "COc1cc(/C=N/n2c(-c3ccccc3)n[nH]c2=O)cc(OC)c1OC", "values": [
      {"measurement": "TGI", "setting": "PC-3 prostate", "value": "> 100", "unit": "µM"},
      {"measurement": "TGI", "setting": "TK-10 renal", "value": "> 65.9", "unit": "µM"},
      {"measurement": "TGI", "setting": "UACC-62 melanoma", "value": "> 100", "unit": "µM"},
      {"measurement": "TGI", "setting": "HS 578T breast", "value": 20.2, "unit": "µM"},
      {"measurement": "TGI", "setting": "SNB-75 CNS", "value": "> 30.2", "unit": "µM"},
      {"measurement": "TGI", "setting": "OVCAR-5 ovarian", "value": "> 100", "unit": "µM"},
      {"measurement": "TGI", "setting": "SK-MEL-28 melanoma", "value": "> 100", "unit": "µM"},
      {"measurement": "TGI", "setting": "M14 melanoma", "value": "> 100", "unit": "µM"},
      {"measurement": "TGI", "setting": "RXF 393 renal", "value": 29.8, "unit": "µM"},
      {"measurement": "TGI", "setting": "KM12 colon", "value": "> 100", "unit": "µM"},
      {"measurement": "TGI", "setting": "SN12C renal", "value": "> 100", "unit": "µM"},
      {"measurement": "TGI", "setting": "786-0 renal", "value": 48.2, "unit": "µM"},
      {"measurement": "TGI", "setting": "U251 CNS", "value": "> 42.3", "unit": "µM"},
      {"measurement": "TGI", "setting": "NCI-H226 lung", "value": "> 100", "unit": "µM"},
      {"measurement": "TGI", "setting": "SF-539 CNS", "value": 39.1, "unit": "µM"},
      {"measurement": "TGI", "setting": "OVCAR-8 ovarian", "value": "> 100", "unit": "µM"},
      {"measurement": "TGI", "setting": "OVCAR-4 ovarian", "value": "> 100", "unit": "µM"},
      {"measurement": "TGI", "setting": "SR leukemia", "value": "> 100", "unit": "µM"},
      {"measurement": "TGI", "setting": "SK-MEL-5 melanoma", "value": "> 100", "unit": "µM"},
      {"measurement": "TGI", "setting": "HOP-62 NSCLC", "value": 33.1, "unit": "µM"},
      {"measurement": "TGI", "setting": "MALME-3M melanoma", "value": 48.8, "unit": "µM"},
      {"measurement": "TGI", "setting": "MCF7 breast", "value": "> 100", "unit": "µM"},
      {"measurement": "TGI", "setting": "SK-MEL-2 melanoma", "value": "> 59", "unit": "µM"},
      {"measurement": "TGI", "setting": "T-47D breast", "value": "> 100", "unit": "µM"},
      {"measurement": "TGI", "setting": "OVCAR-3 ovarian", "value": "> 37.5", "unit": "µM"},
      {"measurement": "TGI", "setting": "NCI/ADR-RES ovarian", "value": 9.96, "unit": "µM"},
      {"measurement": "TGI", "setting": "SF-295 CNS", "value": 18, "unit": "µM"},
      {"measurement": "TGI", "setting": "RPMI-8226 leukemia", "value": "> 100", "unit": "µM"},
      {"measurement": "TGI", "setting": "BT-549 breast", "value": 18.6, "unit": "µM"},
      {"measurement": "TGI", "setting": "MOLT-4 leukemia", "value": "> 100", "unit": "µM"},
      {"measurement": "TGI", "setting": "K-562 leukemia", "value": "> 100", "unit": "µM"},
      {"measurement": "TGI", "setting": "NCI-H460 lung", "value": "> 100", "unit": "µM"},
      {"measurement": "TGI", "setting": "SK-OV-3 ovarian", "value": "> 25", "unit": "µM"},
      {"measurement": "TGI", "setting": "DU-145 prostate", "value": "> 76.2", "unit": "µM"},
      {"measurement": "TGI", "setting": "CCRF-CEM leukemia", "value": "> 100", "unit": "µM"},
      {"measurement": "TGI", "setting": "SNB-19 CNS", "value": "> 43.1", "unit": "µM"},
      {"measurement": "TGI", "setting": "NCI-H522 lung", "value": "> 58.1", "unit": "µM"},
      {"measurement": "TGI", "setting": "HT29 colon", "value": "> 100", "unit": "µM"},
      {"measurement": "TGI", "setting": "IGROV1 ovarian", "value": "> 100", "unit": "µM"},
      {"measurement": "TGI", "setting": "ACHN renal", "value": 40.5, "unit": "µM"},
      {"measurement": "TGI", "setting": "A498 renal", "value": 17.4, "unit": "µM"},
      {"measurement": "TGI", "setting": "HL-60(TB) leukemia", "value": "> 100", "unit": "µM"},
      {"measurement": "TGI", "setting": "HCC-2998 colon", "value": "> 100", "unit": "µM"},
      {"measurement": "TGI", "setting": "MDA-MB-231 breast", "value": "> 61.8", "unit": "µM"},
      {"measurement": "TGI", "setting": "UACC-257 melanoma", "value": "> 100", "unit": "µM"},
      {"measurement": "TGI", "setting": "HCT-116 colon", "value": "> 100", "unit": "µM"},
      {"measurement": "TGI", "setting": "HCT-15 colon", "value": "> 100", "unit": "µM"},
      {"measurement": "TGI", "setting": "NCI-H23 lung", "value": "> 71.8", "unit": "µM"},
      {"measurement": "TGI", "setting": "SF-268 CNS", "value": 40.7, "unit": "µM"},
      {"measurement": "TGI", "setting": "MDA-MB-435", "value": 6.43, "unit": "µM"},
      {"measurement": "TGI", "setting": "COLO 205 colon", "value": "> 100", "unit": "µM"},
      {"measurement": "TGI", "setting": "A549 NSCLC", "value": "> 100", "unit": "µM"},
      {"measurement": "TGI", "setting": "UO-31 renal", "value": "> 100", "unit": "µM"},
      {"measurement": "TGI", "setting": "SW-620 colon", "value": "> 100", "unit": "µM"},
      {"measurement": "TGI", "setting": "CAKI-1 renal", "value": 21.7, "unit": "µM"},
      {"measurement": "TGI", "setting": "LOX IMVI melanoma", "value": "> 100", "unit": "µM"},
      {"measurement": "TGI", "setting": "EKVX NSCLC", "value": "> 100", "unit": "µM"},
      {"measurement": "TGI", "setting": "HOP-92 NSCLC", "value": "> 82.2", "unit": "µM"}
    ]}
  ]
}
